target: T1, human histamine H3 receptor (Homo sapiens, UniProt Q9Y5N1); assay: [3H]-N-Methylhistamine binding; settings: membranes of H3 receptor-expressing SK-N-MC cells; 0.8 nM [3H]-N-methylhistamine, 60 min at 25° C.
T1 construct: expressed in transfected cells; membranes were used
Protocol: Cells were grown to about 70% to 80% confluence and removed from the plate with trypsin and pelleted in a clinical centrifuge. […] One μg supercoiled H3 receptor cDNA was added to the cells and mixed gently. The voltage for the electroporation was set at 0.25 kV and the capacitance was set at 960 μF. After electroporation the cells were diluted with 10 mL of complete media and were plated onto four 10 cm dishes at the following ratios: 1:20, 1:10, 1:5, and 1:2. […] Colonies that survived selection were grown and tested. SK-N-MC cells were used because they give efficient coupling for inhibition of adenylate cyclase. The clones that gave the most robust inhibition of adenylate cyclase in response to histamine were used for further study.
Cell pellets from histamine H3 receptor-expressing SK-N-MC cells were homogenized in 50 mM TrisHCl/0.5 mM EDTA. Supernatants from an 800 g spin were collected and were recentrifuged at 30,000 g for 30 min. Pellets were re-homogenized in 50 mM Tris/5 mM EDTA (pH 7.4). Membranes were incubated with 0.8 nM [^3H]-N-methylhistamine plus/minus test compounds for 60 min at 25° C. and were harvested by rapid filtration over GF/C glass fiber filters (pretreated with 0.3% polyethylenimine) followed by four washes with buffer. Filters were added to 5 mL of scintillation cocktail, and the signal was then counted on a liquid scintillation counter.

T1 sequence (Q9Y5N1 whole entry): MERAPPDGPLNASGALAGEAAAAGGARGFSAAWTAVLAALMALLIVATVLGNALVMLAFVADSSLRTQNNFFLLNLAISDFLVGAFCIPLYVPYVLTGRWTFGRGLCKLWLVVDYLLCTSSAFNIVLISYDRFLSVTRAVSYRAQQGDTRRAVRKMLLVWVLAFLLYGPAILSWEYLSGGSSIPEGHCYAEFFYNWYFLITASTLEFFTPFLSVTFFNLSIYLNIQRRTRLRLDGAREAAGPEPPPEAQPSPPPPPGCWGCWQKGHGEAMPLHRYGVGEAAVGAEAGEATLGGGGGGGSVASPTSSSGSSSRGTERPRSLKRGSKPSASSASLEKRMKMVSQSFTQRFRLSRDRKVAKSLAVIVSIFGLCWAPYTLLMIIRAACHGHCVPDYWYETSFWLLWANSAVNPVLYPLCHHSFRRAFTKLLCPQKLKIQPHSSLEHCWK

Ki [nM]	SMILES
6	CC(C)N1CCN(C(=O)c2ccnc(NCCN3CCCCC3)c2)CC1 [Example 16, (4-Isopropyl-piperazin-1-yl)-[2-(2-piperidin-1-yl-ethylamino)-pyridin-4-yl]-methanone]
141	CC(C)N1CCN(C(=O)c2cccnc2NCCN2CCCCC2)CC1 [Example 17, (4-Isopropyl-piperazin-1-yl)-[2-(2-piperidin-1-yl-ethylamino)-pyridin-3-yl]-methanone]
2	C(#Cc1cncc(CN2CCCCC2)c1)CCN1CCCCC1 [Example 18, 3-(4-Piperidin-1-yl-but-1-ynyl)-5-piperidin-1-ylmethyl-pyridine]
15	C(#Cc1cncc(CN2CCOCC2)c1)CCN1CCCCC1 [Example 19, 4-[5-(4-Piperidin-1-yl-but-1-ynyl)-pyridin-3-ylmethyl]-morpholine]
8	C(#Cc1cccc(CN2CCCCC2)n1)CCN1CCCCC1 [Example 20, 2-(4-Piperidin-1-yl-but-1-ynyl)-6-piperidin-1-ylmethyl-pyridine]
38	C(#Cc1cccc(CN2CCOCC2)n1)CCN1CCCCC1 [Example 21, 4-[6-(4-Piperidin-1-yl-but-1-ynyl)-pyridin-2-ylmethyl]-morpholine]
29	COCCNCc1cccc(C#CCCN2CCCCC2)n1 [Example 22, (2-Methoxy-ethyl)-[6-(4-piperidin-1-yl-but-1-ynyl)-pyridin-2-ylmethyl]-amine]

Second part, the molecule before the results:

SMILES	Ki [nM]
C(#Cc1ccc(CN2CCCCC2)cn1)CCN1CCCCC1 [Example 8, 2-(4-Piperidin-1-yl-but-1-ynyl)-5-piperidin-1-ylmethyl-pyridine]	5
CC(C)N1CCN(C(=O)c2ccc(NCCN3CCCCC3)nc2)CC1 [Example 9, (4-Isopropyl-piperazin-1-yl)-[6-(2-piperidin-1-yl-ethylamino)-pyridin-3-yl]-methanone]	2
CC(C)N1CCN(C(=O)c2ccc(NCCN3CCOCC3)nc2)CC1 [Example 10, (4-Isopropyl-piperazin-1-yl)-[6-(2-morpholin-4-yl-ethylamino)-pyridin-3-yl]-methanone]	14
CC(C)N1CCN(C(=O)c2ccc(NCCc3ccccn3)nc2)CC1 [Example 11, (4-Isopropyl-piperazin-1-yl)-[6-(2-pyridin-2-yl-ethylamino)-pyridin-3-yl]-methanone]	84
CCN(CC)CCN(C)c1ccc(C(=O)N2CCN(C(C)C)CC2)cn1 [Example 12, {6-[(2-Diethylamino-ethyl)-methyl-amino]-pyridin-3-yl}-(4-isopropyl-piperazin-1-yl)-methanone]	3
CC(C)N1CCN(C(=O)c2ccc(N3CCN(C(C)C)CC3)nc2)CC1 [Example 13, (4-Isopropyl-piperazin-1-yl)-[6-(4-isopropyl-piperazin-1-yl)-pyridin-3-yl]-methanone]	4
CCOC(=O)N1CCN(c2ccc(C(=O)N3CCN(C(C)C)CC3)cn2)CC1 [Example 14, 4-[5-(4-Isopropyl-piperazine-1-carbonyl)-pyridin-2-yl]-piperazine-1-carboxylic acid ethyl ester]	79
CC(C)N1CCN(C(=O)c2ccc(N3CCN(C)CC3)nc2)CC1 [Example 15, (4-Isopropyl-piperazin-1-yl)-[6-(4-methyl-piperazin-1-yl)-pyridin-3-yl]-methanone]	3
